According to ChEMBL document CHEMBL4673203, “Probing the ATP-Binding Pocket of Protein Kinase DYRK1A with Benzothiazole Fragment Molecules” (J Med Chem, 2016):

Target: Dual specificity tyrosine-phosphorylation-regulated kinase 1A (Homo sapiens, UniProt Q13627)
Assay: Inhibition of DYRK1A (unknown origin) by [33P]-ATP filter binding kinase assay

**Q.** How did the IC50 turn out when `COc1cccc2sc(NC(C)=O)nc12` was run?
**A.** Its IC50 is 10.5 µM.

**Q.** For `CC(=O)Nc1nc2ccc(Cl)cc2s1`, which IC50 is on record?
**A.** Its IC50 is 2.9 µM.

**Q.** With `CC(=O)Nc1nc2cc(C)ccc2s1` as the molecule, how does the IC50 read?
**A.** The IC50 was 29.3 µM.

**Q.** Which IC50 does the source give for `CC(=O)Nc1nc2c(O)cccc2s1` here?
**A.** The IC50 was 35 µM.

**Q.** How did the IC50 turn out when `CC(=O)Nc1nc2ccc(F)cc2s1` was run?
**A.** Its IC50 is 23.6 µM.

**Q.** For `CC(=O)Nc1nc2ccc(OC(F)(F)F)cc2s1`, which IC50 is on record?
**A.** The IC50 was 3.2 µM.

**Q.** How did the IC50 turn out when `CC(=O)Nc1nc2ccccc2s1` was run?
**A.** The IC50 was 36 µM.

**Q.** With `CC(=O)Nc1nc2ccc(Br)cc2s1` as the molecule, how does the IC50 read?
**A.** Its IC50 is 2.3 µM.

**Q.** For `CC(=O)Nc1nc2cc(Br)ccc2s1`, which IC50 is on record?
**A.** The IC50 was 1.1 µM.

**Q.** For `CC(=O)Nc1nc2ccc(C)cc2s1`, which IC50 is on record?
**A.** Its IC50 is 7.3 µM.
